Assay [1] concerns the target T1, human full-length glucocorticoid receptor (Homo sapiens, UniProt P04150).
T1 construct: recombinantly expressed human full-length glucocorticoid receptor; purchased PanVera Co., Madison, Wis; P2816
T1 sequence (P04150 1-777): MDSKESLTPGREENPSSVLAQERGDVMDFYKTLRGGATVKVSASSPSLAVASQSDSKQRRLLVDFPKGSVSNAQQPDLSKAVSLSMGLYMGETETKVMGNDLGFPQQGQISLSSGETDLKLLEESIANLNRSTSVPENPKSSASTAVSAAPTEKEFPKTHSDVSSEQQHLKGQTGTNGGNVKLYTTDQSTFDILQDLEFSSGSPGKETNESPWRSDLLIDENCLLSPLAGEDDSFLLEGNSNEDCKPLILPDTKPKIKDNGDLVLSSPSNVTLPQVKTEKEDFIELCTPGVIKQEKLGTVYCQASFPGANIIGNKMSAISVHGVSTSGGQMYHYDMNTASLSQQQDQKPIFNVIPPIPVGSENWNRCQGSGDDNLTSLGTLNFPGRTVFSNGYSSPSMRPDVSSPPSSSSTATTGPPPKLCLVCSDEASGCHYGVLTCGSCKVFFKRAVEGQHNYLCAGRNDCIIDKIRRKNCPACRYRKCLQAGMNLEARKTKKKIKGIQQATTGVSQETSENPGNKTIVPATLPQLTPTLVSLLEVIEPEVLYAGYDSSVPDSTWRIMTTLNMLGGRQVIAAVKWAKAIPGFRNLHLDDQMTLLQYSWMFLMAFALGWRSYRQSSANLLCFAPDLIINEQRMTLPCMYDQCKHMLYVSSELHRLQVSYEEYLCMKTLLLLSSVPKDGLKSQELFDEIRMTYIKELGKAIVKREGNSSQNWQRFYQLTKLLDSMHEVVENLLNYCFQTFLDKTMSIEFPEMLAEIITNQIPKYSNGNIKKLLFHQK
Kind of assay: GR binding Assay II (fluorescence polarization competitor assay). Particulars: given where AP-1 EC50 is greater than 1 uM and/or maximal inhibition is less than 20%; read-out: GR (Ki, nM) (measured in GR binding Assay II). How it is done:
Glucocorticoid Receptor Binding Assay (II)
In order to measure the binding of compounds on the glucocorticoid receptor a commercially available kit was used (Glucocorticoid receptor competitor assay kit, PanVera Co., Madison, Wis., P2816). Briefly, a cell lysate containing recombinantly expressed human full-length glucocorticoid receptor was mixed with a fluorescently labeled glucocorticoid (1 nM Fluormone GS1) in the presence or absence of test compound. After one hour at room temperature, the fluorescence polarization (FP) of the samples were measured. The FP of a mixture of receptor, fluorescent probe (i.e. Fluormone GS1) and 1 mM dexamethasone represented background fluorescence or 100% inhibition, whereas, the FP of the mixture without dexamethasone was taken to be 100% binding. The percentage inhibition of test molecules were then compared to the sample with 1 mM dexamethasone and expressed as % relative binding activity with dexamethasone being 100% and no inhibition is 0%. Test molecules were analyzed in the concentration range from 2.4 nM to 40 microMolar.
A general note: Polarisation of emitted light reports the rotation of a fluorescent probe.

In assay [2] the test system is AP-1. Kind of assay: Cellular transrepression assay (AP-1 luciferase reporter in A549 cells, PMA activated). The assay is classed as cell-based. Particulars: 10 ng/ml PMA; for EC50: read-out: AP-1 (EC50, nM) (measured in cellular transrepression assay); for Emax: read-out: AP-1 Max % inhibition (measured in cellular transrepression assay). How it is done: Cellular Transrepressional Assay
To measure the ability of test molecules to inhibit AP-1 induced transcriptional activity we utilized an A549 cell which was stably transfected with a plasmid containing 7×AP-1 DNA binding sites (pAP-1-Luc plasmid, Stratagene Co. La Jolla, Calif.) followed by the gene for luciferase. Cells were activated with 10 ng/ml of phorbol myristic acid (PMA) plus or minus test molecules for 7 hours. After 7 hours a luciferase reagent was added to measure luciferase enzymatic activity in the cell. After a 10 minute incubation of luciferase reagent with cells, luminescence was measured in a TopCount luminescence counter. Repression of AP-1 activity was calculated as the percentage decrease in the signal induced by PMA alone. Test molecules were analyzed in the concentration range from 0.1 nM to 40 μM. EC50s were determined by using standard curve fitting methods such as Excel fit (Microsoft Co.). An EC50 is the test molecule concentration at which there is a 50% repression of the maximal inhibition of transcription, i.e. a 50% reduction of AP-1 activity.
A general note: In a reporter assay the amount or activity of a reporter protein is the signal.

Where two headings read alike, the source gives them in different places.

Consider `CCN(C)C(=O)c1ccc(-c2ccc3c(n2)Oc2nc(C)ccc2[C@@H]3C(C)(C)C(=O)Nc2nnc(C(=O)NCCO)s2)cc1` [Example 85], for which, in assay [1], the inhibitory constant (Ki) (commonly the dissociation constant of the complex between target and ligand, obtained from inhibition or displacement) was determined as 67.2 nM.

In the case of `CCSc1ccc(-c2ccc3c(n2)Oc2nc(C)ccc2[C@@H]3C(C)(C)C(=O)Nc2nncs2)cc1` [Example 78], the Ki in assay [1] turned out to be 2.15 nM. As to `Cc1ccc2c(n1)Oc1nc(-c3ccc(C(=O)NC(C)(C)C)cc3)ccc1[C@H]2C(C)(C)C(=O)Nc1nncs1` [Example 26], the Ki in assay [1] turned out to be 591 nM. `Cc1ccc2c(n1)Oc1nc(-c3ccc(OC(C)(C)C)cc3)ccc1[C@H]2C(C)(C)C(=O)Nc1nncs1` [Example 79]: the inhibition constant Ki in assay [1] came out at 40.5 nM. As to `Cc1ccc2c(n1)Oc1nc(N(C)C)ccc1C2C(C)(C)C(=O)Nc1nncs1` (stereo not shown) [Example 20, 2-(2-(dimethylamino)-8-methyl-5H-pyrido[3′,2′:5,6]pyrano[2,3-b]pyridin-5-yl)-2-methyl-N-1,3,4-thiadiazol-2-ylpropanamide], in assay [2] (7 h), the EC50 – broadly, the concentration giving half of the maximal effect – is 198 nM and the Emax was 27.9%. Take `CCN(C)C(=O)c1ccc(-c2ccc3c(n2)Oc2nc(C)ccc2C3C(C)(C)C(=O)Nc2nncs2)cc1` (stereo not shown) [Example 14, 4-(5-(1,1-dimethyl-2-oxo-2-(1,3,4-thiadiazol-2-ylamino)ethyl)-8-methyl-5H-pyrido[3′,2′:5,6]pyrano[2,3-b]pyridin-2-yl)-N-ethyl-N-methylbenzamide]: in assay [2] (7 h), the 50% effective concentration (EC50) worked out at 97.2 nM and the Emax came out at 58%.

In the case of `Cc1ccc2c(n1)Oc1nc(-c3ccc(C(=O)N4CCC(F)(F)C4)cc3)ccc1[C@H]2C(C)(C)C(=O)Nc1nncs1` [Example 40], in assay [2] (7 h), the EC50 amounted to 539 nM and the Emax amounted to 43.3%. With `CCN(C)C(=O)c1ccc(-c2ccc3c(n2)Oc2nc(C)ccc2[C@@H]3C(C)(C)C(=O)Nc2nnc(C(=O)NC3CC3)s2)cc1` [Example 44], in assay [2] (7 h), the concentration giving a half-maximal response (EC50) is 589 nM and the Emax stood at 60.8%.

As to `Cc1nsc(NC(=O)C(C)(C)C2c3ccc(Cl)nc3Oc3nc(-c4ccc(C(=O)N(C)C)cc4)ccc32)n1` (stereo not shown) [Example 57], in assay [2] (7 h), the EC50 came to 68.5 nM and the Emax was 31.4%. For `CN(C)C(=O)c1ccc(-c2ccc3c(n2)Oc2cnccc2C3C(C)(C)C(=O)Nc2nncs2)cc1` (stereo not shown) [Example 1, 4-(5-(1,1-dimethyl-2-oxo-2-(1,3,4-thiadiazol-2-ylamino)ethyl)-5H-pyrido[4′,3′:5,6]pyrano[2,3-b]pyridin-2-yl)-N,N-dimethylbenzamide] the same measures were 255 nM and 29.3%. Take `CCN(C)C(=O)c1ccc(-c2ccc3c(n2)Oc2nc(C)ccc2[C@@H]3C(C)(C)C(=O)Nc2nnc(C(=O)N3CCOCC3)s2)cc1` [Example 50]: in assay [2] (7 h), the concentration for a half-maximal effect (EC50) worked out at 908 nM and the Emax was determined as 35.4%. In the case of `Cc1nnc(NC(=O)C(C)(C)C2c3ccc(Cl)nc3Oc3nc(-c4ccc(C(=O)N(C)C)cc4)ccc32)s1` (stereo not shown) [Example 56], in assay [2] (7 h), the EC50 was 70.6 nM and the Emax came out at 45.9%. As for `Cc1ccc2c(n1)Oc1nc(-c3ccc(C(=O)N(C)C)cc3)ccc1[C@H]2C(C)(C)C(=O)Nc1ncns1` [Example 13], in assay [2] (7 h), the concentration giving a half-maximal response (EC50) was 233 nM and the Emax was determined as 38.1%.

For `CCN(C)C(=O)c1ccc(-c2ccc3c(n2)Oc2nc(C)ccc2[C@@H]3C(C)(C)C(=O)Nc2nccs2)cc1` [Example 34], in assay [2] (7 h), the EC50 is 14.6 nM and the Emax turned out to be 64.9%. `CC(=O)c1ccc(-c2ccc3c(n2)Oc2nc(C)ccc2C3C(C)(C)C(=O)Nc2nncs2)cc1` (stereo not shown) [Example 17]: in assay [2] (7 h), the 50% effective concentration (EC50) is 72.8 nM and the Emax was 42.4%. With `Cc1nnc(NC(=O)C(C)(C)C2c3ccc(Cl)nc3Oc3nc(-c4ccc(C(=O)N5CCOCC5)cc4)ccc32)s1` (stereo not shown) [Example 63], in assay [2] (7 hours), the “AP-1 Max % inhibition (measured in cellular transrepression assay)” value is 54.57% and the EC50 amounted to 87 nM. For `CCN(C)C(=O)c1ccc(-c2ccc3c(n2)Oc2nc(C)ccc2[C@@H]3C(C)(C)C(=O)Nc2nnc(C(=O)NCC(F)(F)F)s2)cc1` [Example 87], in assay [2] (7 h), the 50% effective concentration (EC50) is 574 nM and the Emax was 51.7%. Taken in the same sequence, the figures for `CCN(C)C(=O)c1ccc(-c2ccc3c(n2)Oc2nc(C)ccc2[C@@H]3C(C)(C)C(=O)Nc2ncc(C)s2)cc1` [Example 33] were 449 nM and 50.8%. For `Cc1ccc2c(n1)Oc1nc(-c3ccc([S+]([O-])C(C)C)cc3)ccc1C2C(C)(C)C(=O)Nc1nncs1` (stereo in doubt) [Example 82, 2-((5S)-2-(4-(isopropylsulfinyl)phenyl)-8-methyl-5H-pyrido[3′,2′:5,6]pyrano[2,3-b]pyridin-5-yl)-2-methyl-N-1,3,4-thiadiazol-2-ylpropanamide] the same measures were 181 nM and 34.4%. Taken in the same sequence, the figures for `CCN(C)C(=O)c1ccc(-c2ccc3c(n2)Oc2nc(C)ccc2[C@@H]3C(C)(C)C(=O)Nc2nnc(C(=O)NC(C)C)s2)cc1` [Example 86] were 183 nM and 61.6%. Take `CCN(C)C(=O)c1ccc(-c2ccc3c(n2)Oc2nc(Cl)ccc2C3C(C)(C)C(=O)Nc2nnc(C)s2)cc1` (stereo not shown) [Example 58, 4-(8-chloro-5-(1,1-dimethyl-2-((5-methyl-1,3,4-thiadiazol-2-yl)amino)-2-oxoethyl)-5H-pyrido[3′,2′:5,6]pyrano[2,3-b]pyridin-2-yl)-N-ethyl-N-methylbenzamide]: in assay [2] (7 h), the half-maximal effective concentration (EC50) is 58.1 nM and the Emax turned out to be 57.7%. In the case of `Cc1ccc2c(n1)Oc1nc(-c3ccc(C(=O)N4CCOCC4)c(F)c3)ccc1[C@H]2C(C)(C)C(=O)Nc1nncs1` [Example 42], in assay [2] (7 h), the concentration giving a half-maximal response (EC50) is 228 nM and the Emax turned out to be 43.6%.

On to `Cc1nnc(NC(=O)C(C)(C)C2c3ccc(Cl)nc3Oc3nc(-c4ccc(C(=O)N5CCOCC5)cc4)ccc32)s1` (stereo not shown) [Example 61], for which, in assay [2] (7 h), the EC50 was 47.5 nM and the Emax worked out at 49.8%. Taken in the same sequence, the figures for `Cc1ccc2c(n1)Oc1nc(-c3ccc([S+](C)[O-])cc3)ccc1C2C(C)(C)C(=O)Nc1nncs1` [Example 36, (4-((5S)-5-(1,1-dimethyl-2-oxo-2-(1,3,4-thiadiazol-2-ylamino)ethyl)-8-methyl-5H-pyrido[3′,2′:5,6]pyrano[2,3-b]pyridin-2-yl)phenyl)(methyl)sulfoniumolate] were 526 nM and 26.9%. With `CCN(C)C(=O)c1ccc(-c2ccc3c(n2)Oc2nc(N(C)C)ccc2C3C(C)(C)C(=O)Nc2nnc(C)s2)cc1` (stereo not shown) [Example 71], in assay [2] (7 h), the 50% effective concentration (EC50) came out at 67.2 nM and the Emax is 48.6%.

With `Cc1ccc2c(n1)Oc1nc(-c3ccc(C(=O)N(C)C)cc3)ccc1[C@H]2C(C)(C)C(=O)Nc1nncs1` [Example 11], in assay [2] (7 h), the half-maximal effective concentration (EC50) stood at 90.1 nM and the Emax was 45.2%.

On to `Cc1nnc(NC(=O)C(C)(C)C2c3ccc(-c4ccc(C(=O)N(C)C)cc4)nc3Oc3nc(N(C)C)ccc32)s1` (stereo not shown) [Example 68, 4-(8-(dimethylamino)-5-(1,1-dimethyl-2-((5-methyl-1,3,4-thiadiazol-2-yl)amino)-2-oxoethyl)-5H-pyrido[3′,2′:5,6]pyrano[2,3-b]pyridin-2-yl)-N,N-dimethylbenzamide], for which, in assay [2] (7 h), the concentration for a half-maximal effect (EC50) was found to be 95.3 nM and the Emax was found to be 46.3%. For the molecule `CCN(C)C(=O)c1ccc(-c2ccc3c(n2)Oc2nc(C)ccc2C3C(C)(C)C(=O)Nc2nncs2)cc1F` (stereo not shown) [Example 18], in assay [2] (7 h), the 50% effective concentration (EC50) is 52 nM and the Emax stood at 47.8%.

(Values after patent publication US8304539B2, “Fused heteroaryl modulators of glucocorticoid receptor, AP-1, and/or NF-κB activity and use thereof” (Bristol-Myers Squibb Company, priority 2008, dated 2012).)
